In patent US6444850B1, “Fungicidial compounds having a fluorovinyloxphyenyl moiety and process for the preparation thereof” (priority 1997, dated 2002):

Tests used:
[1] = tested on: Botrytis cinerae; assay: Fungicidal activity against cucumber gray mold rot (CGM) disease; format: in vivo; details: 50 ppm, control value
[2] = tested on: Rhizoctonia solani AG-1; assay: Fungicidal activity against rice sheath blight (RSB) disease; details: 50 ppm, control value
Procedure: 50 ml of the resulting solution was sprayed on leaves of a host plant. The plant was kept at room temperature for 24 hours to let the solvent evaporate, and then, a pathogenic fungus was inoculated thereonto. The plant was held in a humidity chamber for 24 hours, transferred to an plant growth room kept at 20 to 27° C. and a relative humidity of 60 to 80% and kept to induce disease. Subsequently, the lesion area(L.A.) attacked by the pathogenic fungus was measured according to a method of Cho(Cho, K. Y., Search Report by Korea Research Institute of Chemical Technology (1989))”. This procedure was repeated twice for each test. 10% Acetone solution containing 250 ppm of Tween-20 was used as a control.
The fungicidal activity of the compound of the present invention is repressed by a control value (C.V.) calculated as; [formula]
Rhizoctonia solani AG-1 was cultured on a PDA medium(potato 200 g, dextrose 20 g, agar 20 g and distilled water 1 l) for 3 days and the agar disc (diameter 0.6 cm) was inoculated and cultured on sterilized wheat bran medium in a 1 l bottle at 26 to 28° C. for 7 days. A mycelial mass was ground using a homogenizer, inoculated uniformly on soil of a pot wherein a Nakdong rice plant having 2 or 3 leaves and an height of 5 cm grew, and kept in humidity polyvinyl chamber for 5 days to induce RSB. L.A. on a leaf sheath was measured to calculate an C.V.

[3] = tested on: Puccinia recondita; assay: Fungicidal activity against wheat leaf rust (WLR) disease; format: in vivo; details: for C. V. (%), Fungicidal Activities against WLB at 10 ppm: Table 8 (Test Example 5); for C. V. (%) WLR: 50 ppm, control value, wheat leaf rust
[4] = tested on: Phytophthora infestans; format: in vivo; details: 50 ppm; control value, tomato late blight
[5] = tested on: Pyricularia oryzae Carvara KA301; format: in vivo; details: for C. V. (%) Fungicidal Activities against RCB at 10 ppm / C. V. (%) Fungicidal Activities against RCB at 10 ppm (TABLE 6): sprayed on Nakdong rice plant, control value from lesion area; for C. V. (%) RCB: 50 ppm, control value, rice blast
[6] = tested on: Erysiphae graminis; assay: Fungicidal activity against barley powdery mildew (BPM) disease; format: in vivo; details: for C. V. (%), Fungicidal activities against TLB at 10 ppm: Table 9 (Test Example 6); for C. V. (%) BPM: 50 ppm, control value, barley powdery mildew

| Structure (SMILES) | C. V. (%) CGM [1] | C. V. (%) RSB [2] | C. V. (%), Fungicidal Activities against WLB at 10 ppm [3] | C. V. (%) WLR [3] | C. V. (%) TLB [4] | C. V. (%) Fungicidal Activities against RCB at 10 ppm [5] | C. V. (%) Fungicidal Activities against RCB at 10 ppm (TABLE 6) [5] | C. V. (%) RCB [5] | C. V. (%), Fungicidal activities against TLB at 10 ppm [6] | C. V. (%) BPM [6] |
| --- | --- | --- | --- | --- | --- | --- | --- | --- | --- | --- |
| CNC(=O)C(=NOC)c1ccccc1COc1cccc(OC(F)=C(c2ccc(OC)cc2)C(F)(F)F)c1 [Compound 77] | 11% | 60% | 100% | 100% | 82% | 96% | 96% | 99% | 100% | 100% |
| CCOc1ccc(C(=C(F)Oc2cccc(OCc3ccccc3C(=COC)C(=O)OC)c2)C(F)(F)F)cc1 [Compound 78] | 0% | 40% | 97% | 98% | 0% | – | – | 0% | 100% | 100% |
| CCOc1ccc(C(=C(F)Oc2cccc(OCc3ccccc3C(=NOC)C(=O)OC)c2)C(F)(F)F)cc1 [Compound 79] | 7% | 55% | 96% | 100% | 18% | – | – | 0% | 99% | 100% |
| CCOc1ccc(C(=C(F)Oc2cccc(OCc3ccccc3C(=NOC)C(=O)NC)c2)C(F)(F)F)cc1 [Compound 80] | 0% | 0% | 100% | 100% | 0% | 95% | 95% | 100% | 100% | 100% |
| COC=C(C(=O)OC)c1ccccc1COc1cccc(OC(F)=C(c2ccc3c(c2)OCO3)C(F)(F)F)c1 [Compound 81] | 0% | 65% | 100% | 100% | 33% | – | – | 86% | 100% | 100% |
| CON=C(C(=O)OC)c1ccccc1COc1cccc(OC(F)=C(c2ccc3c(c2)OCO3)C(F)(F)F)c1 [Compound 82] | 0% | 45% | 96% | 98% | 0% | – | – | 50% | 97% | 100% |
| COC=C(C(=O)OC)c1ccccc1COc1cccc(OC(F)=C(c2cccc(C(F)(F)F)c2)C(F)(F)F)c1 [Compound 83] | 0% | 50% | 94% | 100% | 11% | – | – | 25% | 100% | 100% |
| COC=C(C(=O)OC)c1ccccc1COc1cccc(OC(F)=C(c2cccc(Cl)c2)C(F)(F)F)c1 [Compound 84] | 16% | 25% | 97% | 100% | 81% | 95% | 95% | 90% | 100% | 100% |
| CNC(=O)C(=COC)c1ccccc1COc1cccc(OC(F)=C(c2cccc(Cl)c2)C(F)(F)F)c1 [Compound 85] | 16% | 10% | – | 73% | 22% | – | – | 16% | – | 0% |
| CON=C(C(=O)OC)c1ccccc1COc1cccc(OC(F)=C(c2cccc(Cl)c2)C(F)(F)F)c1 [Compound 86] | 27% | 90% | 96% | 100% | 22% | – | – | 90% | 95% | 100% |
| CNC(=O)C(=NOC)c1ccccc1COc1cccc(OC(F)=C(c2cccc(Cl)c2)C(F)(F)F)c1 [Compound 87] | 0% | 0% | 100% | 100% | 0% | 100% | 100% | 100% | 100% | 100% |
| COC=C(C(=O)OC)c1ccccc1COc1cccc(OC(F)=C(c2ccc(Cl)cc2)C(F)(F)F)c1 [Compound 88] | 25% | 25% | 93% | 98% | 31% | – | – | 92% | 100% | 100% |
